What all share (assay): combination Emax (second highest fraction inhibited in the dose matrix, 72 h); higher = more inhibition; extreme values may be limits of the assay
For test [1], the system named is HCC1500 (Breast Carcinoma). The method in brief:
(§1)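 After 24 hours at 37°C and 5% CO2 in 1536-well plates, cells in DMEM/F12 or RPMI plus 10% FBS received two-drug dose matrices for 72 hours. Viability came from CellTiter-Glo 2.0 luminescence and was scaled as inhibition, anchored at 0 by vehicle wells and at 1 by blank wells. Combination Emax is taken as the second-highest inhibition in the matrix, and Bliss excess as the observed combination effect less EA + EB − EA·EB, with EA and EB the single-agent effects.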

The subject of test [2] is MOG-G-UVW (Low Grade Glioma). The method, boiled down: as §1
The test system of test [3] is NCI-H1993 (Lung Adenocarcinoma). The method in brief:
as §1

Test [4] relates to NCI-H650 (Lung Adenocarcinoma). The method in brief:
as §1

Each structure is given as a SMILES string.

Turning to `Cc1c2c(nn1C)CSCc1cc(n(C)n1)CSc1cc(c3ccccc3c1)OCCCc1c(C(=O)O)n(C)c3c-2c(Cl)ccc13` [AZD5991] + C[C@@H](Nc1cc(F)cc(F)c1)c1cc(C(=O)N(C)C)cc2c(=O)cc(N3CCOCC3)oc12 [AZD8186] (first compound max 1 µM, 7x7, partner max 3 µM), the “combination Emax” value in test [1] amounted to 0.426; in test [2] it was 0.512; in test [3], 0.455; in test [4] it was 0.22.
For `Cc1c2c(nn1C)CSCc1cc(n(C)n1)CSc1cc(c3ccccc3c1)OCCCc1c(C(=O)O)n(C)c3c-2c(Cl)ccc13` [AZD5991] + Cc1cc2ncnn2cc1Nc1ncc2c(n1)n(C1CCOCC1)c(=O)n2C [AZD7648] (first compound max 1 µM, 7x7, partner max 10 µM), in that order: 0.465, 0.271, 0.492 and 0.203.
For `C[C@@H]1COCCN1c1cc(C2([S@](C)(=N)=O)CC2)nc(-c2ccnc3[nH]ccc23)n1` [AZD6738] + O=C(c1cc(Cc2n[nH]c(=O)c3ccccc23)ccc1F)N1CCN(C(=O)C2CC2)CC1 [Olaparib] (first compound max 10 µM, 7x7, partner max 10 µM), in that order: 0.341, 0.847, 0.549 and 0.193.
As for `NC1(C(=O)N[C@@H](CCO)c2ccc(Cl)cc2)CCN(c2ncnc3[nH]ccc23)CC1` [Capivasertib] + CC(=O)c1c(C)c2cnc(Nc3ccc(N4CCNCC4)cn3)nc2n(C2CCCC2)c1=O [Palbociclib] (first compound max 10 µM, 7x7, partner max 10 µM), the “combination Emax” value came out at 0.239 in test [1], 0.727 in test [2], 0.647 in test [3] and 0.262 in test [4].
For `NC1(C(=O)N[C@@H](CCO)c2ccc(Cl)cc2)CCN(c2ncnc3[nH]ccc23)CC1` [Capivasertib] + CC(C)n1c(=O)n(C)c2cnc3cc(F)c(-c4ccc(OCCCN5CCCCC5)nc4)cc3c21 [AZD1390] (first compound max 10 µM, 7x7, partner max 0.3 µM), in that order: 0.165, 0.576, 0.595 and 0.268.
For `NC1(C(=O)N[C@@H](CCO)c2ccc(Cl)cc2)CCN(c2ncnc3[nH]ccc23)CC1` [Capivasertib] + CCN(CCO)CCCOc1ccc2c(Nc3cc(CC(=O)Nc4cccc(F)c4)[nH]n3)ncnc2c1 [AZD2811] (first compound max 10 µM, 7x7, partner max 1 µM), in that order: 0.265, 0.733, 0.605 and 0.346.
On the same counts, the results for `NC1(C(=O)N[C@@H](CCO)c2ccc(Cl)cc2)CCN(c2ncnc3[nH]ccc23)CC1` [Capivasertib] + COc1nnc2ccc(N3CCC(c4ccc(OCCN5CCN(C)C(=O)[C@H]5C)cc4)CC3)nn12 [AZD5153] (first compound max 10 µM, 7x7, partner max 1 µM) are 0.264, 0.835, 0.676 and 0.579.
Turning to `NC1(C(=O)N[C@@H](CCO)c2ccc(Cl)cc2)CCN(c2ncnc3[nH]ccc23)CC1` [Capivasertib] + C[C@@H]1COCCN1C2=NC(=NC(=C2)C3(CC3)[S@](=N)(=O)C)C4=C5C=CNC5=NC=C4 [AZD6738] (first compound max 10 µM, 7x7, partner max 10 µM), the “combination Emax” value in test [1] is 0.335; in test [2], 0.796; in test [3], 0.742; in test [4], 0.406.
For `NC1(C(=O)N[C@@H](CCO)c2ccc(Cl)cc2)CCN(c2ncnc3[nH]ccc23)CC1` [Capivasertib] + Cn1cnc2c(F)c(Nc3ccc(Br)cc3Cl)c(C(=O)NOCCO)cc21 [Selumetinib] (first compound max 10 µM, 7x7, partner max 10 µM), in that order: 0.25, 0.714, 0.839 and 0.352.
For `COc1cccc2c1C(=O)c1c(O)c3c(c(O)c1C2=O)C[C@@](O)(C(=O)CO)C[C@@H]3O[C@H]1C[C@H](N)[C@H](O)[C@H](C)O1` [Doxorubicin] + Cc1cc2ncnn2cc1Nc1ncc2c(n1)n(C1CCOCC1)c(=O)n2C [AZD7648] (first compound max 1 µM, 7x7, partner max 10 µM), in that order: 0.887, 0.867, 0.968 and 0.334.
For `CS(=O)(=O)CCNCc1ccc(-c2ccc3ncnc(Nc4ccc(OCc5cccc(F)c5)c(Cl)c4)c3c2)o1` [Lapatinib] + C[C@@H](Oc1cc(-c2cnn(C3CCNCC3)c2)cnc1N)c1c(Cl)ccc(F)c1Cl [Crizotinib] (first compound max 10 µM, 7x7, partner max 10 µM), in that order: 0.854, 0.842, 0.94 and 0.615.
For the molecule `CS(=O)(=O)CCNCc1ccc(-c2ccc3ncnc(Nc4ccc(OCc5cccc(F)c5)c(Cl)c4)c3c2)o1` [Lapatinib] + NC1(c2ccc(-c3nc4ccn5c(=O)[nH]nc5c4cc3-c3ccccc3)cc2)CCC1 [MK-2206] (first compound max 10 µM, 7x7, partner max 10 µM), the “combination Emax” value was 0.901 in test [1], 0.648 in test [2], 0.68 in test [3] and 0.31 in test [4].
For `CC(=O)c1c(C)c2cnc(Nc3ccc(N4CCNCC4)cn3)nc2n(C2CCCC2)c1=O` [Palbociclib] + CC1(C)CCC(CN2CCN(c3ccc(C(=O)NS(=O)(=O)c4ccc(NCC5CCOCC5)c([N+](=O)[O-])c4)c(Oc4cnc5[nH]ccc5c4)c3)CC2)=C(c2ccc(Cl)cc2)C1 [Venetoclax] (first compound max 10 µM, 7x7, partner max 1 µM), in that order: 0.545, 0.497, 0.403 and 0.172.
On the same counts, the results for `CC(=O)c1c(C)c2cnc(Nc3ccc(N4CCNCC4)cn3)nc2n(C2CCCC2)c1=O` [Palbociclib] + Cc1c2c(nn1C)CSCc1cc(n(C)n1)CSc1cc(c3ccccc3c1)OCCCc1c(C(=O)O)n(C)c3c-2c(Cl)ccc13 [AZD5991] (first compound max 10 µM, 7x7, partner max 1 µM) are 0.434, 0.526, 0.403 and 0.244.
Take `CC(=O)c1c(C)c2cnc(Nc3ccc(N4CCNCC4)cn3)nc2n(C2CCCC2)c1=O` [Palbociclib] + Cn1cnc2c(F)c(Nc3ccc(Br)cc3Cl)c(C(=O)NOCCO)cc21 [Selumetinib] (first compound max 10 µM, 7x7, partner max 10 µM): the “combination Emax” value came to 0.193 in test [1], 0.523 in test [2], 0.69 in test [3] and 0.36 in test [4].
On the same counts, the results for `COc1cccc(OCCCN)c1-c1cc(Nc2cnc(C#N)cn2)n[nH]1` [Prexasertib] + C=CCn1c(=O)c2cnc(Nc3ccc(N4CCN(C)CC4)cc3)nc2n1-c1cccc(C(C)(C)O)n1 [AZD1775] (first compound max 1 µM, partner max 1 µM) are 0.541, 0.943, 0.906 and 0.732.
For the molecule `COc1cccc(OCCCN)c1-c1cc(Nc2cnc(C#N)cn2)n[nH]1` [Prexasertib] + CCc1c2c(nc3ccc(O)cc13)-c1cc3c(c(=O)n1C2)COC(=O)[C@]3(O)CC [SN-38] (first compound max 1 µM, 7x7, partner max 0.3 µM), the “combination Emax” value came out at 0.934 in test [1], 0.987 in test [2], 0.938 in test [3] and 0.815 in test [4].
On the same counts, the results for `COc1cccc(OCCCN)c1-c1cc(Nc2cnc(C#N)cn2)n[nH]1` [Prexasertib] + CN(C)CCCOc1ccc(-c2ccc3ncc4c(c3c2)n(C2CCOCC2)c(=O)n4C)cn1 [AZD0156] (first compound max 1 µM, 7x7, partner max 1 µM) are 0.348, 0.88, 0.826 and 0.671.
On to `COc1cccc(OCCCN)c1-c1cc(Nc2cnc(C#N)cn2)n[nH]1` [Prexasertib] + C[C@@H]1COCCN1C2=NC(=NC(=C2)C3(CC3)[S@](=N)(=O)C)C4=C5C=CNC5=NC=C4 [AZD6738] (first compound max 1 µM, 7x7, partner max 10 µM), for which the “combination Emax” value in test [1] was determined as 0.383; in test [2], 0.917; in test [3] it was 0.721; in test [4] it was 0.647.
Take `COc1cccc(OCCCN)c1-c1cc(Nc2cnc(C#N)cn2)n[nH]1` [Prexasertib] + Cc1cc2ncnn2cc1Nc1ncc2c(n1)n(C1CCOCC1)c(=O)n2C [AZD7648] (first compound max 1 µM, 7x7, partner max 10 µM): the “combination Emax” value in test [1] amounted to 0.334; in test [2], 0.904; in test [3] it was 0.777; in test [4] it was 0.653.
Turning to `COc1cccc(OCCCN)c1-c1cc(Nc2cnc(C#N)cn2)n[nH]1` [Prexasertib] + O=C(c1cc(Cc2n[nH]c(=O)c3ccccc23)ccc1F)N1CCN(C(=O)C2CC2)CC1 [Olaparib] (first compound max 1 µM, 7x7, partner max 10 µM), the “combination Emax” value in test [1] turned out to be 0.286; in test [2] it was 0.926; in test [3], 0.845; in test [4], 0.708.
On the same counts, the results for `CCc1c2c(nc3ccc(O)cc13)-c1cc3c(c(=O)n1C2)COC(=O)[C@]3(O)CC` [SN-38] + CN(C)CCCOc1ccc(-c2ccc3ncc4c(c3c2)n(C2CCOCC2)c(=O)n4C)cn1 [AZD0156] (first compound max 0.3 µM, 7x7, partner max 1 µM) are 0.708, 0.854, 0.696 and 0.607.
For `Cn1cnc2c(F)c(Nc3ccc(Br)cc3Cl)c(C(=O)NOCCO)cc21` [Selumetinib] + C=CCn1c(=O)c2cnc(Nc3ccc(N4CCN(C)CC4)cc3)nc2n1-c1cccc(C(C)(C)O)n1 [AZD1775] (first compound max 10 µM, partner max 1 µM), in that order: 0.207, 0.72, 0.83 and 0.693.
For `Cn1cnc2c(F)c(Nc3ccc(Br)cc3Cl)c(C(=O)NOCCO)cc21` [Selumetinib] + CC(C)n1c(=O)n(C)c2cnc3cc(F)c(-c4ccc(OCCCN5CCCCC5)nc4)cc3c21 [AZD1390] (first compound max 10 µM, 7x7, partner max 0.3 µM), in that order: 0.157, 0.346, 0.627 and 0.243.
For `Cn1cnc2c(F)c(Nc3ccc(Br)cc3Cl)c(C(=O)NOCCO)cc21` [Selumetinib] + CCN(CCO)CCCOc1ccc2c(Nc3cc(CC(=O)Nc4cccc(F)c4)[nH]n3)ncnc2c1 [AZD2811] (first compound max 10 µM, 7x7, partner max 1 µM), the “combination Emax” value in test [1] is 0.157; in test [2], 0.642; in test [3] it was 0.703; in test [4], 0.387.
On the same counts, the results for `Cn1cnc2c(F)c(Nc3ccc(Br)cc3Cl)c(C(=O)NOCCO)cc21` [Selumetinib] + C[C@@H]1COCCN1C2=NC(=NC(=C2)C3(CC3)[S@](=N)(=O)C)C4=C5C=CNC5=NC=C4 [AZD6738] (first compound max 10 µM, 7x7, partner max 10 µM) are 0.183, 0.691, 0.795 and 0.619.
In the case of `CC(=O)Nc1cccc(-n2c(=O)n(C3CC3)c(=O)c3c(Nc4ccc(I)cc4F)n(C)c(=O)c(C)c32)c1` [Trametinib] + Cc1nc(-c2cn3c(n2)-c2ccc(-c4cnn(C(C)(C)C(N)=O)c4)cc2OCC3)n(C(C)C)n1 [Taselisib] (first compound max 1 µM, 7x7, partner max 10 µM), the “combination Emax” value was 0.319 in test [1], 0.955 in test [2], 0.898 in test [3] and 0.705 in test [4].

(Values after the supplement of paper PMC11061612.)
